Test results reported in patent publication US11331369B2, “Endoparasitic depsipeptides” (Zoetis Services LLC, priority 2017, dated 2022).

System: microfilariae of Dirofilaria immitis
Assay: Dirofilaria immitis, Microfilaria (DiMF) In vitro Assay
Format: cell-based
Details: 72 h, read-out: DiMF Minimum Effective Dose (MED), approximately 72 hours incubation, microfilariae assessed for survival or paralysis

Row | SMILES | minimal effective concentration [µM]
1 | Cc1cnn(Cc2ccc(C[C@H]3OC(=O)[C@H](CC(C)C)N(C)C(=O)[C@@H](C)OC(=O)[C@H](CC(C)C)N(C)C(=O)[C@@H](Cc4ccc(Cn5cc(-c6ccccc6)cn5)cc4)OC(=O)[C@H](CC(C)C)N(C)C(=O)[C@@H](C)OC(=O)[C@H](CC(C)C)N(C)C3=O)cc2)c1 [Example 1a-19, (3S,6R,9S,12R,15S,18R,21S,24R)-3,9,15,21-tetraisobutyl-4,6,10,16,18,22-hexamethyl-12-(4-((4-methyl-1H-pyrazol-1-yl)methyl)benzyl)-24-(4-((4-phenyl-1H-pyrazol-1-yl)methyl)benzyl)-1,7,13,19-tetraoxa-4,10,16,22-tetraazacyclotetracosan-2,5,8,11,14,17,20,23-octaone] | 0.01 to 0.1
2 | CC(C)C[C@H]1C(=O)O[C@H](Cc2ccc(Cn3nccc3-c3ccccc3)cc2)C(=O)N(C)[C@@H](CC(C)C)C(=O)O[C@H](C)C(=O)N(C)[C@@H](CC(C)C)C(=O)O[C@H](Cc2ccccc2)C(=O)N(C)[C@@H](CC(C)C)C(=O)O[C@H](C)C(=O)N1C [Example 2-67, (3S,6R,9S,12R,15S,18R,21S,24R)-6-benzyl-3,9,15,21-tetraisobutyl-4,10,12,16,22,24-hexamethyl-18-(4-((5-phenyl-1H-pyrazol-1-yl)methyl)benzyl)-1,7,13,19-tetraoxa-4,10,16,22-tetraazacyclotetracosan-2,5,8,11,14,17,20,23-octaone] | 0.01 to 0.1
3 | Cc1cnn(Cc2ccc(C[C@H]3OC(=O)[C@H](CC(C)C)N(C)C(=O)[C@@H](C)OC(=O)[C@H](CC(C)C)N(C)C(=O)[C@@H](Cc4ccc(Cn5cc(-c6ccc(F)cc6)cn5)cc4)OC(=O)[C@H](CC(C)C)N(C)C(=O)[C@@H](C)OC(=O)[C@H](CC(C)C)N(C)C3=O)cc2)c1 [Example 1a-22, (3S,6R,9S,12R,15S,18R,21S,24R)-6-(4-((4-(4-fluorophenyl)-1H-pyrazol-1-yl)methyl)benzyl)-3,9,15,21-tetraisobutyl-4,10,12,16,22,24-hexamethyl-18-(4-((4-methyl-1H-pyrazol-1-yl)methyl)benzyl)-1,7,13,19-tetraoxa-4,10,16,22-tetraazacyclotetracosan-2,5,8,11,14,17,20,23-octaone] | 0.01 to 0.1
4 | CC(C)C[C@H]1C(=O)O[C@H](Cc2ccc(Cn3cc(CO)c(C(F)(F)F)n3)cc2)C(=O)N(C)[C@@H](CC(C)C)C(=O)O[C@H](C)C(=O)N(C)[C@@H](CC(C)C)C(=O)O[C@H](Cc2ccc(Cn3cc(CO)c(C(F)(F)F)n3)cc2)C(=O)N(C)[C@@H](CC(C)C)C(=O)O[C@H](C)C(=O)N1C [Example 1b-162, (3S,6R,9S,12R,15S,18R,21S,24R)-6,18-bis(4-((4-(hydroxymethyl)-3-(trifluoromethyl)-1H-pyrazol-1-yl)methyl)benzyl)-3,9,15,21-tetraisobutyl-4,10,12,16,22,24-hexamethyl-1,7,13,19-tetraoxa-4,10,16,22-tetraazacyclotetracosan-2,5,8,11,14,17,20,23-octaone] | 0.01 to 0.1
5 | Cc1nn(Cc2ccc(C[C@H]3OC(=O)[C@H](CC(C)C)N(C)C(=O)[C@@H](C)OC(=O)[C@H](CC(C)C)N(C)C(=O)[C@@H](Cc4ccc(Cn5cc(OC(C)C)c(C)n5)cc4)OC(=O)[C@H](CC(C)C)N(C)C(=O)[C@@H](C)OC(=O)[C@H](CC(C)C)N(C)C3=O)cc2)cc1OC(C)C [Example 1b-199, (3S,6R,9S,12R,15S,18R,21S,24R)-3,9,15,21-tetraisobutyl-6,18-bis[[4-[(4-isopropoxy-3-methyl-pyrazol-1-yl)methyl]phenyl]methyl]-4,10,12,16,22,24-hexamethyl-1,7,13,19-tetraoxa-4,10,16,22-tetrazacyclotetracosane-2,5,8,11,14,17,20,23-octaone] | 0.01 to 0.1
6 | CCOC(=O)c1cnn(Cc2ccc(C[C@H]3OC(=O)[C@H](CC(C)C)N(C)C(=O)[C@@H](C)OC(=O)[C@H](CC(C)C)N(C)C(=O)[C@@H](Cc4ccccc4)OC(=O)[C@H](CC(C)C)N(C)C(=O)[C@@H](C)OC(=O)[C@H](CC(C)C)N(C)C3=O)cc2)c1 [Example 2-12, ethyl 1-(4-(((2R,5S,8R,11S,14R,17S,20R,23S)-14-benzyl-5,11,17,23-tetraisobutyl-4,8,10,16,20,22-hexamethyl-3,6,9,12,15,18,21,24-octaoxo-1,7,13,19-tetraoxa-4,10,16,22-tetraazacyclotetracosan-2-yl)methyl)benzyl)-1H-pyrazole-4-carboxylate] | 0.001 to 0.01
7 | CC(C)C[C@H]1C(=O)O[C@H](Cc2ccc(Cn3cc(-c4ccccc4)cn3)cc2)C(=O)N(C)[C@@H](CC(C)C)C(=O)O[C@H](C)C(=O)N(C)[C@@H](CC(C)C)C(=O)O[C@H](Cc2ccc(Cn3cccn3)cc2)C(=O)N(C)[C@@H](CC(C)C)C(=O)O[C@H](C)C(=O)N1C [Example 1a-15, (3S,6R,9S,12R,15S,18R,21S,24R)-6-(4-((1H-pyrazol-1-yl)methyl)benzyl)-3,9,15,21-tetraisobutyl-4,10,12,16,22,24-hexamethyl-18-(4-((4-phenyl-1H-pyrazol-1-yl)methyl)benzyl)-1,7,13,19-tetraoxa-4,10,16,22-tetraazacyclotetracosan-2,5,8,11,14,17,20,23-octaone] | 0.01 to 0.1
8 | CC(C)C[C@H]1C(=O)O[C@H](Cc2ccc(Cn3cnnn3)cc2)C(=O)N(C)[C@@H](CC(C)C)C(=O)O[C@H](C)C(=O)N(C)[C@@H](CC(C)C)C(=O)O[C@H](Cc2ccc(Cn3cnnn3)cc2)C(=O)N(C)[C@@H](CC(C)C)C(=O)O[C@H](C)C(=O)N1C [Example 9-18, (3S,6R,9S,12R,15S,18R,21S,24R)-6,18-bis(4-((1H-tetrazol-1-yl)methyl)benzyl)-3,9,15,21-tetraisobutyl-4,10,12,16,22,24-hexamethyl-1,7,13,19-tetraoxa-4,10,16,22-tetraazacyclotetracosan-2,5,8,11,14,17,20,23-octaone] | 0.01 to 0.1
9 | CC(C)C[C@H]1C(=O)O[C@H](Cc2ccc(Cn3cc(S(=O)(=O)N4CCCC4)cn3)cc2)C(=O)N(C)[C@@H](CC(C)C)C(=O)O[C@H](C)C(=O)N(C)[C@@H](CC(C)C)C(=O)O[C@H](Cc2ccc(Cn3cc(S(=O)(=O)N4CCCC4)cn3)cc2)C(=O)N(C)[C@@H](CC(C)C)C(=O)O[C@H](C)C(=O)N1C [Example 1b-54, (3S,6R,9S,12R,15S,18R,21S,24R)-3,9,15,21-tetraisobutyl-4,6,10,16,18,22-hexamethyl-12,24-bis(4-((4-(pyrrolidin-1-ylsulfonyl)-1H-pyrazol-1-yl)methyl)benzyl)-1,7,13,19-tetraoxa-4,10,16,22-tetraazacyclotetracosan-2,5,8,11,14,17,20,23-octaone] | 0.01 to 0.1
10 | CC(C)C[C@H]1C(=O)O[C@H](Cc2cccc(Cn3cccn3)c2)C(=O)N(C)[C@@H](CC(C)C)C(=O)O[C@H](C)C(=O)N(C)[C@@H](CC(C)C)C(=O)O[C@H](Cc2cccc(Cn3cccn3)c2)C(=O)N(C)[C@@H](CC(C)C)C(=O)O[C@H](C)C(=O)N1C [Example 4-1, (3S,6R,9S,12R,15S,18R,21S,24R)-6,18-bis(3-((1H-pyrazol-1-yl)methyl)benzyl)-3,9,15,21-tetraisobutyl-4,10,12,16,22,24-hexamethyl-1,7,13,19-tetraoxa-4,10,16,22-tetraazacyclotetracosan-2,5,8,11,14,17,20,23-octaone] | 0.001 to 0.01
11 | Cc1nn(Cc2ccc(C[C@H]3OC(=O)[C@H](CC(C)C)N(C)C(=O)[C@@H](C)OC(=O)[C@H](CC(C)C)N(C)C(=O)[C@@H](Cc4ccc(Cn5cc(Br)c(C)n5)cc4)OC(=O)[C@H](CC(C)C)N(C)C(=O)[C@@H](C)OC(=O)[C@H](CC(C)C)N(C)C3=O)cc2)cc1Br [Example 1b-43, (3S,6R,9S,12R,15S,18R,21S,24R)-6,18-bis(4-((4-bromo-3-methyl-1H-pyrazol-1-yl)methyl)benzyl)-3,9,15,21-tetraisobutyl-4,10,12,16,22,24-hexamethyl-1,7,13,19-tetraoxa-4,10,16,22-tetraazacyclotetracosan-2,5,8,11,14,17,20,23-octaone] | 0.01 to 0.1
12 | CC(C)C[C@H]1C(=O)O[C@H](Cc2ccc(Cn3ccc(C4CCC4)n3)cc2)C(=O)N(C)[C@@H](CC(C)C)C(=O)O[C@H](C)C(=O)N(C)[C@@H](CC(C)C)C(=O)O[C@H](Cc2ccc(Cn3ccc(C4CCC4)n3)cc2)C(=O)N(C)[C@@H](CC(C)C)C(=O)O[C@H](C)C(=O)N1C [Example 1b-106, (3S,6R,9S,12R,15S,18R,21S,24R)-6,18-bis(4-((3-cyclobutyl-1H-pyrazol-1-yl)methyl)benzyl)-3,9,15,21-tetraisobutyl-4,10,12,16,22,24-hexamethyl-1,7,13,19-tetraoxa-4,10,16,22-tetraazacyclotetracosan-2,5,8,11,14,17,20,23-octaone] | 0.01 to 0.1
13 | Cc1nccn1Cc1ccc(C[C@H]2OC(=O)[C@H](CC(C)C)N(C)C(=O)[C@@H](C)OC(=O)[C@H](CC(C)C)N(C)C(=O)[C@@H](Cc3ccc(Cn4ccnc4C)cc3)OC(=O)[C@H](CC(C)C)N(C)C(=O)[C@@H](C)OC(=O)[C@H](CC(C)C)N(C)C2=O)cc1 [Example 6-1, (3S,6R,9S,12R,15S,18R,21S,24R)-3,9,15,21-tetraisobutyl-4,6,10,16,18,22-hexamethyl-12,24-bis[[4-[(2-methylimidazol-1-yl)methyl]phenyl]methyl]-1,7,13,19-tetraoxa-4,10,16,22-tetrazacyclotetracosane-2,5,8,11,14,17,20,23-octaone] | 0.001 to 0.01
14 | CCc1nccn1Cc1ccc(C[C@H]2OC(=O)[C@H](CC(C)C)N(C)C(=O)[C@@H](C)OC(=O)[C@H](CC(C)C)N(C)C(=O)[C@@H](Cc3ccc(Cn4ccnc4CC)cc3)OC(=O)[C@H](CC(C)C)N(C)C(=O)[C@@H](C)OC(=O)[C@H](CC(C)C)N(C)C2=O)cc1 [Example 6-4, (3S,6R,9S,12R,15S,18R,21S,24R)-6,18-bis[[4-[(2-ethylimidazol-1-yl)methyl]phenyl]methyl]-3,9,15,21-tetraisobutyl-4,10,12,16,22,24-hexamethyl-1,7,13,19-tetraoxa-4,10,16,22-tetrazacyclotetracosane-2,5,8,11,14,17,20,23-octaone] | 0.01 to 0.1
